The target of experiment [1] is Serine/threonine-protein kinase PAK 6 (Homo sapiens, UniProt Q9NQU5).
Experiment [2] has as its target T1, Dual specificity protein kinase TTK (Homo sapiens, UniProt P33981).
T1 sequence (P33981 whole entry): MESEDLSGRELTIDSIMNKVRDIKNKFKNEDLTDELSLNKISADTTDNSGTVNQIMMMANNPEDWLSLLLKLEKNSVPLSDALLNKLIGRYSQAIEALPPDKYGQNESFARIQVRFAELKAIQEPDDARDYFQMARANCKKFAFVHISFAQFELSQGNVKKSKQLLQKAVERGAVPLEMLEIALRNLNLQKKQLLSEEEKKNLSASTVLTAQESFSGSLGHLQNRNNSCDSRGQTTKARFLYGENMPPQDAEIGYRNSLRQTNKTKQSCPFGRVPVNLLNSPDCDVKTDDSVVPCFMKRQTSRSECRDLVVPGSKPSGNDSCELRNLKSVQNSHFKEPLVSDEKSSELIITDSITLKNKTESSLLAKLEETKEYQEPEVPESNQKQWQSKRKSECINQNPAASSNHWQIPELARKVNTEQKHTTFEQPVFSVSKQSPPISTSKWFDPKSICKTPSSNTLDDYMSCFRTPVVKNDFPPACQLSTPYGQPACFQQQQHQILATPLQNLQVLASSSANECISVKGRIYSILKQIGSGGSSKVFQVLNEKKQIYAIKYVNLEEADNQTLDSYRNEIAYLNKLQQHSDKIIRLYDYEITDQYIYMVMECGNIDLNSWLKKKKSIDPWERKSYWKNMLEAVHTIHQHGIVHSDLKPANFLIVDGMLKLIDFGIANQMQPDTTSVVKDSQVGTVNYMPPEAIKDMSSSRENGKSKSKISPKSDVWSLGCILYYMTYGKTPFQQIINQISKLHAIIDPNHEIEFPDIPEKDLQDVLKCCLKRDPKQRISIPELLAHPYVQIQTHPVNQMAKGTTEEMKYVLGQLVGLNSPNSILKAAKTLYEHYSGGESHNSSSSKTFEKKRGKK

Experiment [3] has as its target T2, Long-chain-fatty-acid--CoA ligase 5 (Homo sapiens, UniProt Q9ULC5).
T2 sequence (Q9ULC5 whole entry): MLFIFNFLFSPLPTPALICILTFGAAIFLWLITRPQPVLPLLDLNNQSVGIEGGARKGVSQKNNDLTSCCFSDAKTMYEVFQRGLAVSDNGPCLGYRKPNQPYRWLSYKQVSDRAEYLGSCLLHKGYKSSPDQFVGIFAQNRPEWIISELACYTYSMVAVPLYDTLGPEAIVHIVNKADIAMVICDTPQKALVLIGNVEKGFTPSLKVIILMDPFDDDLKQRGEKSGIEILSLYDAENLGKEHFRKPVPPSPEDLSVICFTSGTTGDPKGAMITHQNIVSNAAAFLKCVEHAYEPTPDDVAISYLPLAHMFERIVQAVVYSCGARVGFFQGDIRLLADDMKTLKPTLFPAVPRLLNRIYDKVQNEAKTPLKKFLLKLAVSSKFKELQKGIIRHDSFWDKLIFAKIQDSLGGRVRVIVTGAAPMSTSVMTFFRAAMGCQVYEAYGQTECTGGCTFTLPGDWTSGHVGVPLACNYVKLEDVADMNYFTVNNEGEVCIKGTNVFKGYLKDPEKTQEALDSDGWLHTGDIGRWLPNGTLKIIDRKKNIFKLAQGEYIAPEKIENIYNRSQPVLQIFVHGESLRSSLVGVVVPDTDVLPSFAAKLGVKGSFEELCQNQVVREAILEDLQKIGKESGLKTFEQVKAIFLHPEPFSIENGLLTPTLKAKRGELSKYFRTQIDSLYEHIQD

For experiment [4], the target named is Dual specificity protein kinase CLK3 (Homo sapiens, UniProt P49761). The class given is subcellular, K-562, COLO 205, SK-N-BE(2) and MV-4-11, Cell lysate. Particulars: read-out: Kd apparent.
For experiment [5], the target named is T3, Electron transfer flavoprotein subunit beta (Homo sapiens, UniProt P38117).
T3 sequence (P38117 whole entry): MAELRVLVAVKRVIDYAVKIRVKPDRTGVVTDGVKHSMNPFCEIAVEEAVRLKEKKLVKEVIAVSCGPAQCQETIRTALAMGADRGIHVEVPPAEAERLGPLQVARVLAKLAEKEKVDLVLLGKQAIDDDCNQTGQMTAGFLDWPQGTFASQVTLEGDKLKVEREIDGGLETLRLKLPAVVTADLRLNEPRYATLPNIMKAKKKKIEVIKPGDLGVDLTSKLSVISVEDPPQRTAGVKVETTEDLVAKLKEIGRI

For experiment [6], the target named is Serine/threonine-protein kinase N3 (Homo sapiens, UniProt Q6P5Z2).

Counter-ions that a name gives are not always drawn. Active and inactive are the calls of the source. On the calls: in the data inactive means no Kd found up to 30 µM.

Chain of Dual specificity protein kinase CLK3 (P49761 whole entry): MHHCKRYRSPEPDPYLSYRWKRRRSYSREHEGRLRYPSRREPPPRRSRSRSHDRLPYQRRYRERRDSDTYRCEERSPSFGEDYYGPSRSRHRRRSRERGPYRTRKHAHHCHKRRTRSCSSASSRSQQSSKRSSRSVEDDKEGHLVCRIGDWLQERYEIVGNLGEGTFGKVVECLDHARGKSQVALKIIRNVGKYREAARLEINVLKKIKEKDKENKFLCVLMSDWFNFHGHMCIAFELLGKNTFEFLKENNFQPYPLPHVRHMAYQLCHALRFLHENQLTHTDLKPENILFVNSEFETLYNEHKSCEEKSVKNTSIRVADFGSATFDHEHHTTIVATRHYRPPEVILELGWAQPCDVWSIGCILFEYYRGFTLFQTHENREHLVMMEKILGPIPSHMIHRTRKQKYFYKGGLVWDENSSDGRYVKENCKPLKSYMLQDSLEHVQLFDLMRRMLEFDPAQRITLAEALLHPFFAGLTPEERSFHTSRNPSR
Chain of Serine/threonine-protein kinase PAK 6 (Q9NQU5 whole entry): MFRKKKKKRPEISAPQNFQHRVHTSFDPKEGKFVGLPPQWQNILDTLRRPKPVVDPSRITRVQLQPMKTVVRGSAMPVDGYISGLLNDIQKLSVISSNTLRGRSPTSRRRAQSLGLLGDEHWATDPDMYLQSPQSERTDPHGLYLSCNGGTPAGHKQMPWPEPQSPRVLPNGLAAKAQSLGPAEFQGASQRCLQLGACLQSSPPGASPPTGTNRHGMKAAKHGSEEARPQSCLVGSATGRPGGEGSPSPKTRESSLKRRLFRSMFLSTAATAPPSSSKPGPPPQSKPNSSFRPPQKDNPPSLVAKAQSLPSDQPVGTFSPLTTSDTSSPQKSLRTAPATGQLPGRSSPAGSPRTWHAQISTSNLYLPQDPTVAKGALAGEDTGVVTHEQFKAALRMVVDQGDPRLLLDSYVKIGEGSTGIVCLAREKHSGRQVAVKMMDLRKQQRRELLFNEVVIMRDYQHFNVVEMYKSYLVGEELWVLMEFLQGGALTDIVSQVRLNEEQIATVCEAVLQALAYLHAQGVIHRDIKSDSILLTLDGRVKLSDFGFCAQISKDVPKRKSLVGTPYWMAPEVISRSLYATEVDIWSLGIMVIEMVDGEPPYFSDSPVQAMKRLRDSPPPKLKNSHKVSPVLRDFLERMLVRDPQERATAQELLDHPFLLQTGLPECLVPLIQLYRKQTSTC
Chain of Serine/threonine-protein kinase N3 (Q6P5Z2 whole entry): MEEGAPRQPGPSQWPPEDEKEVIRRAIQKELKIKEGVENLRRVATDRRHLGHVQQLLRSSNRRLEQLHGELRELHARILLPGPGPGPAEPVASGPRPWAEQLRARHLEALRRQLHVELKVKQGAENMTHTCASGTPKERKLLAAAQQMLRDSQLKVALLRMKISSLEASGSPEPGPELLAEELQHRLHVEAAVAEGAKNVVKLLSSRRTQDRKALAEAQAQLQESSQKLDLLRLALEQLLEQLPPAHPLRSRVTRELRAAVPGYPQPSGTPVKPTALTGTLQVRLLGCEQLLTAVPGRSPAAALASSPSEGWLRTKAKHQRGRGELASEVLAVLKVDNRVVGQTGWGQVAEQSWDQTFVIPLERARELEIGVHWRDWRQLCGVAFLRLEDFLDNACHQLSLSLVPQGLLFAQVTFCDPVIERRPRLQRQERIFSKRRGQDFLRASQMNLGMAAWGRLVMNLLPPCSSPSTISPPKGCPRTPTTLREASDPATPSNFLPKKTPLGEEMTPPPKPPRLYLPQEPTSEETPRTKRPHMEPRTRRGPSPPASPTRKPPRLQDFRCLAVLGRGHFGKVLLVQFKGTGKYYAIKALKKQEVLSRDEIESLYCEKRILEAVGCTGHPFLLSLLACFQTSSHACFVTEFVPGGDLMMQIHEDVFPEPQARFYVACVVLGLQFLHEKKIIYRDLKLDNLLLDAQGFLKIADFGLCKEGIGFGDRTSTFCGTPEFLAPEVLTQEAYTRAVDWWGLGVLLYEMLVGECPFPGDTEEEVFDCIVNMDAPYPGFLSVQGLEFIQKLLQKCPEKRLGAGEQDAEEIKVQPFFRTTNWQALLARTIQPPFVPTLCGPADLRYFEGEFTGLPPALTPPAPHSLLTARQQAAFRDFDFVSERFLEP

As for `C[C@@H](Oc1cc(C(=O)Nc2ccc(C(=O)N3CCN(C)CC3)cc2)nnc1N)c1c(Cl)ccc(F)c1Cl`, the Kd in experiment [1] was > 30 µM (inactive).
On to `C[C@H]1CNCCCN1S(=O)(=O)c1cccc2cncc(F)c12`, for which the Kd in experiment [1] and in experiment [2] was > 30 µM (inactive) throughout.
Take `CCNC(=O)C#Cc1ccc2c(c1)NC(=O)/C2=C(\Nc1ccc(CN(C)C)cc1)c1ccccc1`: the Kd in experiment [3] and in experiment [4] was > 30 µM (inactive) in each case.
Consider `C=CC(=O)N1CCC[C@H](n2c(=O)n(-c3ccc(Oc4ccccc4)cc3)c3c(N)ncnc32)C1`, for which the Kd in experiment [1], in experiment [5], in experiment [3], in experiment [6] and in experiment [4] was > 30 µM (inactive) throughout.
For the compound `COCc1c(-c2ccc(NC(=O)Nc3cc(C(F)(F)F)ccc3F)c(F)c2)c2c(N)ncnn2c1CN1CCOCC1`, the Kd in experiment [5], in experiment [3] and in experiment [6] was > 30 µM (inactive) throughout.
On to `Nc1ncnc2c1c(-c1cccc(OCc3ccccc3)c1)cn2[C@H]1C[C@@H](CN2CCC2)C1` [AEW-541], for which the Kd is > 30 µM (inactive) in experiment [1], > 30 µM (inactive) in experiment [3] and 0.023 µM in experiment [6].
`COc1cc(Nc2ncc3c(n2)-c2ccc(Cl)cc2C(c2c(F)cccc2OC)=NC3)ccc1C(=O)O` [ALISERTIB]: the Kd in experiment [1], in experiment [5], in experiment [3], in experiment [2] and in experiment [6] was > 30 µM (inactive) throughout.
For `Cc1nc(NC(=O)N2CCC[C@H]2C(N)=O)sc1-c1ccnc(C(C)(C)C(F)(F)F)c1` [ALPELISIB], the Kd in experiment [5] is > 30 µM (inactive).
For `Cc1csc(-c2nnc(Nc3ccc(Oc4ncccc4-c4ccnc(N)n4)cc3)c3ccccc23)c1` [AMG-900], the results for the Kd in experiment [5], in experiment [2] and in experiment [4] were > 30 µM (inactive), > 30 µM (inactive) and 1.48 µM (active), respectively.
`C=CC(=O)Nc1cc2c(Nc3ccc(F)c(Cl)c3)ncnc2cc1C#CC(C)(C)N1CCN(C)CC1` [AV-412 FREE BASE]: the Kd in experiment [1], in experiment [3] and in experiment [6] was > 30 µM (inactive) each time.
For `COc1cc([C@@H]2c3cc4c(cc3[C@H](O)[C@H]3COC(=O)[C@@H]23)OCO4)cc(OC)c1OC` [AXL-1717], the Kd in experiment [5], in experiment [3] and in experiment [2] was > 30 µM (inactive) each time.
For `Cc1cc(Nc2ncc(Cl)c(Nc3ccccc3S(=O)(=O)C(C)C)n2)c(OC(C)C)cc1C1CCNCC1` [CERITINIB], the Kd in experiment [1], in experiment [3], in experiment [2] and in experiment [6] was > 30 µM (inactive) in each case.
Take `COc1c(OCCCN2CCOCC2)ccc2c1N=C(NC(=O)c1cnc(N)nc1)N1CCN=C21` [COPANLISIB]: the Kd in experiment [1], in experiment [5], in experiment [3], in experiment [6] and in experiment [4] was > 30 µM (inactive) throughout.
Take `CCS(=O)(=O)N1CCN(c2ccc(Nc3ncc(C(N)=O)c(NC4CC4)n3)cc2)CC1` [Cerdulatinib Hydrochloride]: the Kd in experiment [1] and in experiment [3] was > 30 µM (inactive) throughout.
On to `Cc1nc2cc(-n3ncc(C(=O)c4cc5ccccc5[nH]4)c3N)ccc2[nH]1` [FGFR INHIBITOR DEBIO 1347], for which the Kd in experiment [5] and in experiment [3] was > 30 µM (inactive) each time.
In the case of `Cc1cccc(-c2nn3c(c2-c2ccnc4ccc(C(N)=O)cc24)CCC3)n1` [GALUNISERTIB], the Kd in experiment [1], in experiment [5], in experiment [3] and in experiment [2] was > 30 µM (inactive) each time.
Turning to `CN(C[C@@H]1COCCO1)S(=O)(=O)Nc1ccc2ccc3ncc(-c4cnn(C)c4)cc3c(=O)c2c1` [MK-2461], the Kd in experiment [5] is > 30 µM (inactive).
As for `Cn1cc(-c2cnc3ccc4ccc(CS(=O)(=O)NCc5ccccn5)cc4c(=O)c3c2)cn1` [MK-8033], the Kd in experiment [1], in experiment [5], in experiment [3], in experiment [6] and in experiment [4] was > 30 µM (inactive) throughout.
On to `FC(F)(F)c1ccc(/C=C/c2nc(COc3ccc(CCCCn4ccnn4)cc3)co2)cc1` [MUBRITINIB], for which the Kd in experiment [2] is > 30 µM (inactive).
Turning to `COc1ncc(-c2ccc3nccc(-c4ccnnc4)c3c2)cc1NS(=O)(=O)c1ccc(F)cc1F` [OMIPALISIB], the Kd in experiment [5], in experiment [3] and in experiment [2] was > 30 µM (inactive) in each case.
In the case of `CCOc1cc2ncc(C#N)c(Nc3ccc(F)c(Cl)c3)c2cc1NC(=O)/C=C/CN(C)C` [PELITINIB], the Kd in experiment [1], in experiment [5], in experiment [2] and in experiment [6] was > 30 µM (inactive) each time.
In the case of `Cc1nc(Nc2n[nH]c3c2CN(C(=O)N[C@H](CN(C)C)c2ccccc2)C3(C)C)c2sccc2n1` [PF-03758309], the Kd in experiment [1] is 0.003 µM (active); in experiment [5] it was > 30 µM (inactive); in experiment [3], > 30 µM (inactive); in experiment [6], > 30 µM (inactive); in experiment [4], > 30 µM (inactive).
Take `O=C(NOCCO)c1cc(CN2OCCCC2=O)c(F)c(F)c1Nc1ccc(I)cc1F` [RO-4987655]: the Kd in experiment [5], in experiment [3] and in experiment [6] was > 30 µM (inactive) in each case.
Take `N#CC[C@H](C1CCCC1)n1cc(-c2ncnc3[nH]ccc23)cn1` [RUXOLITINIB]: the Kd in experiment [5] is > 30 µM (inactive).
Consider `O=c1[nH]ccc2cc(OC3CCNCC3)ccc12` [SAR-407899 FREE BASE], for which the Kd in experiment [1], in experiment [5] and in experiment [3] was > 30 µM (inactive) in each case.
Regarding `Cn1cc(-c2cnn3c(N)c(Br)c([C@@H]4CCCNC4)nc23)cn1` [SCH-900776], the Kd in experiment [1], in experiment [5], in experiment [3] and in experiment [4] was > 30 µM (inactive) in each case.
For `CCS(=O)(=O)c1cccc(-c2cc(C(=O)NC3CCN(C)CC3)c(C)c3[nH]c4ncc(C)cc4c23)c1` [TAK-901], the Kd in experiment [1], in experiment [3] and in experiment [2] was > 30 µM (inactive) throughout.
As for `O=C1NC(=O)[C@@H](c2cn3c4c(cccc24)CCC3)[C@@H]1c1c[nH]c2ccccc12` [TIVANTINIB], the Kd in experiment [1], in experiment [5], in experiment [3] and in experiment [4] was > 30 µM (inactive) each time.
On to `Cn1ncc(Cl)c1-c1cc(C(=O)N[C@H](CN)Cc2ccc(F)c(F)c2)oc1Cl` [UPROSERTIB], for which the Kd in experiment [1], in experiment [5] and in experiment [2] was > 30 µM (inactive) each time.
Consider `CN1C/C=C/CCOc2cccc(c2)-c2ccnc(n2)Nc2cccc(c2)C1` [ZOTIRACICLIB], for which the Kd in experiment [3] is > 30 µM (inactive).

(Values after ChEMBL document CHEMBL3991601, “The target landscape of clinical kinase drugs” (Science, 2017).)
